The nature of data set [1]: ATP cell viability assay (CellTiter-Glo) cytotoxicity. It counts as cell-based. Conditions: human, 70% lopinavir loaded, 24 hours incubation. An excerpt:
(§1) HepG2 (hepatic) and Caco-2 (intestinal) cells were purchased from American Type Tissue Culture (ATCC; USA) and maintained in Dulbecco's modified eagle's medium (DMEM; Sigma; Dorest, Uk) supplemented with 10% fetal bovine serum (FBS; Bio-Whittaker, Berkshire, Uk) for HepG2 and 15% FBS for Caco-2. CEM (lymphocyte) and THP-1 (monocyte) cells were purchased from European Collection of Cell Culture (ECACC; Porton Down, Uk) and grown in RPMI-1640 (Sigma; Dorest, Uk) supplemented with 10% FBS. All cell lines were incubated at 37° C. and 5% CO2 and for adherent cells (HepG2 and Caco-2) were routinely sub-cultured every 4 days when 95% confluent. Suspension cells (CEM and THP-1) were routinely sub-cultured when a density of 1×10^6 cells/ml was achieved. Cell count and viability was determined by Trypan Blue exclusion assay.
HepG2, Caco-2, THP-1, CEM and A-THP-1 cells were separately seeded at a density of 2.5×10^4/100 μl in their appropriate media into each well of a 96 well plate (Nunclon™, Denmark) and incubated for 24 hours at 37° C. and 5% CO2. Media was then aspirated and replaced with media containing 0.1, 1, 10, 100, 500 or 1000 μM, calculated from molarity of lopinavir (145 samples), of each lopinavir dispersion and incubated for a further 24 hours. The same procedure was followed for each individual excipient (23 samples) with concentrations range of 1 μM to 1M.
Prior to starting viability assays, all reagents were made fresh and in accordance to manufacturer's instructions and allowed to equilibrate to room temperature immediately before use. After 24 hours incubation, 96 well plates were removed from the incubator and the plate and its contents allowed too equilibrate to room temperature for approximately 30 minutes. After 30 minutes, 80 μl of media was aspirated from each individual well and 20 μl CellTiter-Glo® Reagent (Promega, UK) was added to the remaining media and cells. The contents were then mixed for 2 minutes on an orbital shaker to induce cell lysis. The plate was then further incubated at room temperature for 10 minutes to stabilise luminescent signal. Luminescence was then measured using a Tecan Genios plate reader (Tecan; Austria).

Test in data set [2]: as above
It counts as cell-based. The note with it: human, A-THP-1 (PMA-activated THP-1, macrophage like) cells, 70% lopinavir loaded, 24 hours incubation.
Text: as §1, with “assay. […]” for “assay.”
HepG2, Caco-2, THP-1, CEM and A-THP-1 cells were separately seeded at a density of 2.5×10^4/100 μl in their appropriate media into each well of a 96 well plate (Nunclon™, Denmark) and incubated for 24 hours at 37° C. and 5% CO2. Media was then aspirated and replaced with media containing 0.1, 1, 10, 100, 500 or 1000 μM, calculated from molarity of lopinavir (145 samples), of each lopinavir dispersion and incubated for a further 24 hours. […]

Data set [3] concerns the target recombinant HIV-1 protease (UniProt P04585). Briefly: Inhibition of recombinant HIV-1 protease. The format is biochemical. Conditions: 70% loaded; cell-free assay; read-out: IC50 against recombinant HIV protease.
Method: HIV-1 protease inhibition screening was conducted as per manufacturers' instructions (Roche Diagnostics GmbH; Germany). […] The entire sample (60 μl) was then transferred into microplate modules and incubated for a further 60 minutes at 37° C. The samples were then aspirated and washed ×5 with 250 μl of wash buffer. After the final aspiration, 200 μl of reconstituted anti-digoxigenin-peroxidase (Anti-DIG-POD) polyclonal antibody (200 mU/ml final concentration) was added to all wells and the plate returned to the incubator for a further 60 minutes at 37° C. The samples were aspirated and washed ×5 with wash buffer. Finally, after the final wash buffer was aspirated, 200 μl of ABTS substrate was added to each well and the plate incubated at room temperature for 15 minutes. Absorbance was then measured at 405 nm using FLUOstar Omega microplate reader (BMG Labtech, Uk).
Another data set relates to HIVIIIB. Briefly: Inhibition of cultured HIV-IIIB in MT4 cells (MTT assay). It counts as cell-based, HIVIIIB in human T-cell line MT4. Conditions: Human immunodeficiency virus 1, 120 h, 70% loaded, 5 days, read-out: IC50 (Table 10, activity against cultured HIV virus). Here is the method:
HIVIIIB and the human T-cell line, MT4, were supplied by the National Institute for Biological Standards and Control (NIBSC), the Centre for AIDS Reagents (CFAR: Hertfordshire, Uk). MT4 cells were grown and routinely maintained in RPMI-1640 (Sigma; Dorest, Uk) supplemented with 10% fetal bovine serum (FBS; Bio-Whittaker, Berkshire, Uk) at 37° C. and 5% CO2 and sub-cultured every 3 days. Cell counts and viability was determined by Trypan Blue exclusion using a disposable plastic haemocytometer (Labtech International Ltd, UK). HIVIIIB was propagated by passage through MT4 cells in RPMI-1640 and 10% FBS for 12 days and a subsequent multiplicity of infection (MOI) was determined by MTT assay.
MT4 cells were dispensed into 50 ml falcon tubes and centrifuged at 2000 rpm and 4° C. for 5 minutes. The supernantant was aspirated and the resulting pellet resuspended to a cell density of 1×10^5/ml in RPMI 1640 supplemented with 10% FBS and 1 ml of viral isolate (M.O.I 0.001). After further centrifugation for 5 minutes at 2000 rpm, the MT4/HIVIIIB pellet was incubated at 37° C. and 5% CO2 for 2 hours. […]
Following incubation for 5 days of MT4/HIVIIIB with nano formulated LOPINAVIR at 37° C. and 5% CO2. […] Absorbance was read at 570 nm on a plate reader (Tecan Magellan, Austria).

Usually IC50 stands for the concentration that inhibits the measured activity by half. Turning to `Cc1cccc(C)c1OCC(=O)N[C@@H](Cc1ccccc1)[C@@H](O)C[C@H](Cc1ccccc1)NC(=O)[C@H](C(C)C)N1CCCNC1=O` [Aqueous solution, lopinavir], the IC50 at 24 h in data set [1] (CEM (lymphocyte) cells) came to 100 µM; in data set [1] (Caco-2 (intestinal) cells), 52.5 µM; in data set [1] (HepG2 (hepatic) cells), 35.8 µM; in data set [1] (THP-1 (monocyte) cells), 28.3 µM; in data set [2], 84.3 µM. In addition, the results for the IC50 (in data set [3]; with HIVIIIB) were 0.032 µM and 0.056 µM, respectively.

The record behind these values is US10603279B2, “Compositions of lopinavir” (The University of Liverpool, priority 2011, dated 2020).
